In ChEMBL document CHEMBL4229348, “Structure-activity relationship studies of ultra-short peptides with potent activities against fluconazole-resistant Candida albicans” (Eur J Med Chem, 2018):
Values after ≈ are worked out from the molar mass of the structure shown. Square brackets hold non-standard residues; d marks the D form. Peptide text beside a SMILES is read from it. Lys(Me2) = CN(C)CCCC[C@H](N)C(=O)O; Ala(cPr) = N[C@@H](CC1CC1)C(=O)O; tBuAla = CC(C)(C)C[C@H](N)C(=O)O; Dap = NC[C@H](N)C(=O)O

Tests used:
Candida albicans = assay: Antifungal activity against fluconazole-resistant Candida albicans ATCC 64550 after overnight incubation by CLSI broth microdilution method; assay type: functional
[1] = Retention time of the compound at 0.4 mM by HPLC analysis; assay type: physicochemical; settings: 400 µM

| Compound | MIC (Candida albicans) | Retention_time [1] |
| --- | --- | --- |
| CC(C)C[C@@H](N)C(=O)N[C@H](CCCCN)C(=O)N[C@H](CC(C)C)C(=O)N[C@H](CCCCN)C(=O)N[C@H](CC(C)C)C(=O)N[C@H](CCCCN)C(=O)N[C@H](CC(C)C)C(=O)N[C@H](CCCCN)C(N)=O | 3.13 µM (≈ 3.07 µg/mL) | 13.8 min |
| CC(C)C[C@H](NC(=O)[C@H](CCCCN)NC(=O)[C@H](CC(C)C)NC(=O)[C@H](CCCCN)NC(=O)[C@H](CC(C)C)NC(=O)[C@H](CCCCN)NC(=O)[C@@H](N)CC(C)C)C(=O)N[C@@H](CCCCN)C(N)=O | 3.13 µM (≈ 3.07 µg/mL) | 13.8 min |
| CC[C@H](C)[C@H](N)C(=O)N[C@@H](CN)C(=O)N[C@H](C(=O)N[C@@H](CN)C(=O)N[C@H](C(=O)N[C@@H](CN)C(=O)N[C@H](C(=O)N[C@@H](CN)C(=O)N[C@H](C(N)=O)[C@@H](C)CC)[C@@H](C)CC)[C@@H](C)CC)[C@@H](C)CC (H-I[Dap]I[Dap]I[Dap]I[Dap]I-NH2) | 25 µM (≈ 23.2 µg/mL) | 13.7 min |
| CC[C@H](C)[C@H](N)C(=O)N[C@@H](CCCCN(C)C)C(=O)N[C@H](C(=O)N[C@@H](CCCCN(C)C)C(=O)N[C@H](C(=O)N[C@@H](CCCCN(C)C)C(=O)N[C@H](C(=O)N[C@@H](CCCCN(C)C)C(N)=O)[C@@H](C)CC)[C@@H](C)CC)[C@@H](C)CC (H-I[Lys(Me2)]I[Lys(Me2)]I[Lys(Me2)]I[Lys(Me2)]-NH2) | 100 µM (≈ 109 µg/mL) | 14 min |
| CC(C)C[C@H](NC(=O)[C@H](CCCCN)NC(=O)[C@@H](N)CC(C)C)C(=O)N[C@@H](CCCCN)C(N)=O (H-LKLK-NH2) | > 100 µM | 11 min |
| CC(C)C[C@H](NC(=O)[C@H](CCCCN)NC(=O)[C@@H](N)CC(C)C)C(N)=O (H-Leu-Lys-Leu-NH2) | > 100 µM | 12.1 min |
| CC(C)C[C@H](N)C(=O)N[C@@H](CCCCN)C(N)=O (H-Leu-Lys-NH2) | > 100 µM | 2.1 min |
| CC(C)C[C@H](NC(=O)[C@@H](N)CCCCN)C(=O)N[C@@H](CCCCN)C(N)=O (H-Lys-Leu-Lys-NH2) | > 100 µM | 2.4 min |
| NCCCC[C@H](NC(=O)[C@H](CC1CC1)NC(=O)[C@H](CCCCN)NC(=O)[C@H](CC1CC1)NC(=O)[C@H](CCCCN)NC(=O)[C@H](CC1CC1)NC(=O)[C@H](CCCCN)NC(=O)[C@@H](N)CC1CC1)C(N)=O (H-[Ala(cPr)]K[Ala(cPr)]K[Ala(cPr)]K[Ala(cPr)]K-NH2) | 6.25 µM (≈ 6.09 µg/mL) | 12.8 min |
| CC(C)(C)C[C@H](NC(=O)[C@H](CCCCN)NC(=O)[C@H](CC(C)(C)C)NC(=O)[C@H](CCCCN)NC(=O)[C@H](CC(C)(C)C)NC(=O)[C@H](CCCCN)NC(=O)[C@@H](N)CC(C)(C)C)C(=O)N[C@@H](CCCCN)C(N)=O (H-[tBuAla]K[tBuAla]K[tBuAla]K[tBuAla]K-NH2) | 3.13 µM (≈ 3.25 µg/mL) | 15.6 min |
| CC[C@H](C)[C@H](N)C(=O)N[C@@H](CCN)C(=O)N[C@H](C(=O)N[C@@H](CCN)C(=O)N[C@H](C(=O)N[C@@H](CCN)C(=O)N[C@H](C(=O)N[C@@H](CCN)C(=O)N[C@H](C(N)=O)[C@@H](C)CC)[C@@H](C)CC)[C@@H](C)CC)[C@@H](C)CC (HELM PEPTIDE1{I.[Dab].I.[Dab].I.[Dab].I.[Dab].I.[am]}$$$$V2.0) | 6.25 µM (≈ 6.15 µg/mL) | 13.5 min |
| CC[C@H](C)[C@H](N)C(=O)N[C@@H](CCCN)C(=O)N[C@H](C(=O)N[C@@H](CCCN)C(=O)N[C@H](C(=O)N[C@@H](CCCN)C(=O)N[C@H](C(=O)N[C@@H](CCCN)C(=O)N[C@H](C(N)=O)[C@@H](C)CC)[C@@H](C)CC)[C@@H](C)CC)[C@@H](C)CC (HELM PEPTIDE1{I.[Orn].I.[Orn].I.[Orn].I.[Orn].I.[am]}$$$$V2.0) | 6.25 µM (≈ 6.5 µg/mL) | 13.2 min |
| CC[C@H](NC(=O)[C@H](CCCCN)NC(=O)[C@H](CC)NC(=O)[C@H](CCCCN)NC(=O)[C@H](CC)NC(=O)[C@H](CCCCN)NC(=O)[C@@H](N)CC)C(=O)N[C@@H](CCCCN)C(N)=O (HELM PEPTIDE1{[Abu].K.[Abu].K.[Abu].K.[Abu].K.[am]}$$$$V2.0) | > 100 µM | 6 min |
| CCCCCCCCCCCC(=O)N[C@H](C(=O)N[C@@H](CCCCN)C(=O)N[C@H](C(=O)N[C@@H](CCCCN)C(=O)N[C@H](C(=O)N[C@@H](CCCCN)C(=O)N[C@H](C(=O)N[C@@H](CCCCN)C(N)=O)[C@@H](C)CC)[C@@H](C)CC)[C@@H](C)CC)[C@@H](C)CC (HELM PEPTIDE1{[CCCCCCCCCCCC(=O)[*:2]].I.K.I.K.I.K.I.K.[am]}$$$$V2.0) | > 100 µM | 20.8 min |
| CCCCCCCCCCCCCCCC(=O)N[C@H](C(=O)N[C@@H](CCCCN)C(=O)N[C@H](C(=O)N[C@@H](CCCCN)C(=O)N[C@H](C(=O)N[C@@H](CCCCN)C(=O)N[C@H](C(=O)N[C@@H](CCCCN)C(N)=O)[C@@H](C)CC)[C@@H](C)CC)[C@@H](C)CC)[C@@H](C)CC (HELM PEPTIDE1{[CCCCCCCCCCCCCCCC(=O)[*:2]].I.K.I.K.I.K.I.K.[am]}$$$$V2.0) | > 100 µM | 23.5 min |
| NCCCC[C@H](NC(=O)[C@H](CC1CCCCC1)NC(=O)[C@H](CCCCN)NC(=O)[C@H](CC1CCCCC1)NC(=O)[C@H](CCCCN)NC(=O)[C@H](CC1CCCCC1)NC(=O)[C@H](CCCCN)NC(=O)[C@@H](N)CC1CCCCC1)C(N)=O (HELM PEPTIDE1{[Cha].K.[Cha].K.[Cha].K.[Cha].K.[am]}$$$$V2.0) | > 100 µM | 17.9 min |
| CCC[C@H](NC(=O)[C@H](CCCCN)NC(=O)[C@H](CCC)NC(=O)[C@H](CCCCN)NC(=O)[C@H](CCC)NC(=O)[C@H](CCCCN)NC(=O)[C@@H](N)CCC)C(=O)N[C@@H](CCCCN)C(N)=O (HELM PEPTIDE1{[Nva].K.[Nva].K.[Nva].K.[Nva].K.[am]}$$$$V2.0) | 6.25 µM (≈ 5.79 µg/mL) | 12 min |
| Ac-IKIKIKIK-NH2 | 12.5 µM | 14.3 min |
| H-AKAKAKAK-NH2 | > 100 µM | 1.9 min |
| H-AKIKIKIK-NH2 | 6.25 µM | 12.4 min |
| H-EKEKEKEK-NH2 | > 100 µM | 1.9 min |
| H-FKFKFKFK-NH2 | 6.25 µM | 15.2 min |
| H-GKGKGKGK-NH2 | > 100 µM | 1.6 min |
| H-IAIKIKIK-NH2 | 12.5 µM | 13.7 min |
| H-IEIEIEIE-NH2 | > 100 µM | 16.1 min |
| H-IIIIKKKK-NH2 | 12.5 µM | 12 min |

| Compound | MIC (Candida albicans) | Retention_time [1] |
| --- | --- | --- |
| H-IIKKIIKK-NH2 | > 100 µM | 11.6 min |
| H-IK(Ac)IK(Ac)IK(Ac)IK(Ac)-NH2 | > 100 µM | 22.9 min |
| H-IKAKIKIK-NH2 | 6.25 µM | 11.8 min |
| H-IKIAIKIK-NH2 | 12.5 µM | 13.8 min |
| H-IKIKAKIK-NH2 | 6.25 µM | 11.8 min |
| H-IKIKIAIK-NH2 | 12.5 µM | 13.8 min |
| H-IKIKIKAK-NH2 | 6.25 µM | 12 min |
| H-IKIKIKIA-NH2 | 12.5 µM | 13.9 min |
| H-IKIKIKIK-OH | 12.5 µM | 13.5 min |
| H-ILRWPWWPWRRK-NH2 [OMIGANAN] | 50 µM |  |
| H-IRIRIRIR-NH2 | 12.5 µM | 13.9 min |
| H-KIKIKIKI-NH2 | 3.13 µM | 14 min |
| H-KKIIKKII-NH2 | > 100 µM | 12.6 min |
| H-KKKKKKKK-NH2 | > 100 µM | 2 min |
| H-KLKLK-NH2 | > 100 µM | 11.2 min |
| H-KLKLKLK-NH2 | 25 µM | 12.7 min |
| H-KLKLKLKL-NH2 | 3.13 µM | 14.4 min |
| H-KLKLKLKLK-NH2 | 3.13 µM | 13.6 min |
| H-LKLKL-NH2 | > 100 µM | 13.7 min |
| H-LKLKLK-NH2 | 100 µM | 12.8 min |
| H-LKLKLKL-NH2 | 50 µM | 14.5 min |
| H-LKLKLKLKL-NH2 | 3.13 µM | 15.1 min |
| H-LKLKLKLKLK-NH2 | 3.13 µM | 14.5 min |
| H-VKVKVKVK-NH2 | 6.25 µM | 11.1 min |
| H-WKWKWKWK-NH2 | > 100 µM | 15.9 min |
